In this assay the target is T1, PDE10A2 (Homo sapiens, UniProt Q9Y233).
T1 construct: residues serine 449 to aspartate 789; His6 (H6) with thrombin cleavage site (N, cleaved yes); made in house; host or cells: E. coli BL21(DE3) pLysS
As to the kind of experiment: PDE10A2 inhibition, Scintillation Proximity Assay (SPA). In kind it is biochemical. The note with it: catalytic domain of human PDE10A2 (S449-D789), 0.25 nM enzyme, 50 nM cGMP + 50 nM [3H]-cGMP, 30 minutes at room temperature. The method in brief: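 Human PDE10A2 catalytic domain (S449-D789, E. coli-expressed) at 0.25 nM hydrolysed 50 nM cGMP plus 50 nM [3H]-cGMP in 20 mM HEPES/10 mM MgCl2, pH 7.5, for 30 min at room temperature. Stopped with YSi-SPA beads in zinc sulphate; scintillation counts over a concentration range gave IC50.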
In general terms: SPA uses beads or plates that emit light when radiolabelled molecules are held near them.

Among the data in US8178538B2, “Pyridazinones” (Hoffmann-La Roche Inc., priority 2008, dated 2012) are IC50 values, retold here.

T1 sequence (Q9Y233 715-1055): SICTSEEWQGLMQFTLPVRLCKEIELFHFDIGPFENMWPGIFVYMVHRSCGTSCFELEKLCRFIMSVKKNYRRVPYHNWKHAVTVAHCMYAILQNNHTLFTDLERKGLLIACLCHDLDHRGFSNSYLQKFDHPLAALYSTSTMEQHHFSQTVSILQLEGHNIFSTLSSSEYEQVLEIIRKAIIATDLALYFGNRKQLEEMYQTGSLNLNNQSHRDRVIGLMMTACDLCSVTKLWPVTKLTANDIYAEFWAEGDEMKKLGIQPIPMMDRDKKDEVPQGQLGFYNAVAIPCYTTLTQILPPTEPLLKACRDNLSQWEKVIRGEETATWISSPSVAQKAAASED

With `O=c1ccn(-c2cccc(S(=O)(=O)N3CCCCC3)c2)nc1-c1ccnn1-c1ccnc2ccc(Cl)cc12` [Example 267, 3-[2-(6-Chloro-quinolin-4-yl)-2H-pyrazol-3-yl]-1-[3-(piperidine-1-sulfonyl)-phenyl]-1H-pyridazin-4-one], the IC50 – broadly, the concentration needed to halve the response being measured – is 40 nM. With `O=c1ccn(-c2cccc(O)c2)nc1-c1ccnn1-c1ccc2c(c1)OCCO2` [Example 277, 3-[2-(2,3-Dihydro-benzo[1,4]dioxin-6-yl)-2H-pyrazol-3-yl]-1-(3-hydroxy-phenyl)-1H-pyridazin-4-one] the figure was 4 nM; with `O=c1ccn(-c2cccc(S(=O)(=O)C(F)(F)F)c2)nc1-c1ccnn1-c1ccccc1` [Example 281, 3-(2-Phenyl-2H-pyrazol-3-yl)-1-(3-trifluoromethanesulfonyl-phenyl)-1H-pyridazin-4-one], 17 nM; with `N#Cc1cccc(-n2nccc2-c2nn(-c3cccc(S(=O)(=O)C(F)(F)F)c3)ccc2=O)c1` [Example 284, 3-{5-[4-Oxo-1-(3-trifluoromethanesulfonyl-phenyl)-1,4-dihydro-pyridazin-3-yl]-pyrazol-1-yl}-benzonitrile], 11 nM.

Turning to `N#Cc1cccc(-n2ccc(=O)c(-c3ccnn3-c3cccc(Cl)c3)n2)c1` [Example 287, 3-{3-[2-(3-Chloro-phenyl)-2H-pyrazol-3-yl]-4-oxo-4H-pyridazin-1-yl}-benzonitrile], the IC50 was 15 nM.

Take `CC(=O)Nc1cccc(-n2ccc(=O)c(-c3ccnn3-c3ccccc3F)n2)c1` [Example 292, N-(3-{3-[2-(2-Fluoro-phenyl)-2H-pyrazol-3-yl]-4-oxo-4H-pyridazin-1-yl}-phenyl)-acetamide]: the IC50 came to 21 nM. Then `CNC(=O)c1cccc(-n2ccc(=O)c(-c3ccnn3-c3ccccc3F)n2)c1` [Example 293, 3-{3-[2-(2-Fluoro-phenyl)-2H-pyrazol-3-yl]-4-oxo-4H-pyridazin-1-yl}-N-methyl-benzamide], with 38 nM; and `CC(=O)N(C)c1cccc(-n2ccc(=O)c(-c3ccnn3-c3ccccc3F)n2)c1` [Example 294, N-(3-{3-[2-(2-Fluoro-phenyl)-2H-pyrazol-3-yl]-4-oxo-4H-pyridazin-1-yl}-phenyl)-N-methyl-acetamide], with 6 nM; and `O=C(OCCF)c1cccc(-n2ccc(=O)c(-c3ccnn3-c3cccc4ccccc34)n2)c1` [Example 295, 3-[3-(2-Naphthalen-1-yl-2H-pyrazol-3-yl)-4-oxo-4H-pyridazin-1-yl]-benzoic acid 2-fluoro-ethyl ester], with 2 nM. For `CC(O)c1cccc(-n2ccc(=O)c(-c3ccnn3-c3ccccc3F)n2)c1` (stereo not shown) [Example 298, 3-[2-(2-Fluoro-phenyl)-2H-pyrazol-3-yl]-1-[3-(1-hydroxy-ethyl)-phenyl]-1H-pyridazin-4-one], the half-inhibitory concentration (IC50) was 26 nM.
